Each structure is given as a SMILES string. Some results are limits rather than exact numbers.

What is called melting point is the temperature of the solid-liquid transition. The compound `Cc1cccc(NC(=O)NCC(=O)N(CC(=O)N(C)c2ccc(Cl)cc2)c2ccccc2)c1` registered a melting point of 160 °C.
As for `O=C(O)c1ccc2c(c1)COC2c1ccc(F)cc1` (stereo unspecified), the melting point lay within 187 to 190 °C.
The value for `O=C1CCN(C(=O)c2ccc(Cl)cc2Cl)c2cc(Cl)ccc21` was 159 to 163 °C.
Compound `O=P(O)(O)C1(P(=O)(O)O)CCCCCN1` showed a melting point of 275 °C.
`CCCn1c(N)c(N=O)c(=O)n(CC2CCCCC2)c1=O` registered a melting point of 225 to 226 °C.
Compound `CCOC(=O)N[C@@H]1[C@H](O)C(=O)N2[C@H](c3ccccc3)OC[C@@H]12` returned a melting point of 176 to 178 °C.
`Cc1cc(CC2(Cc3ccnc(C)c3)c3ccccc3-c3ncccc32)ccn1` registered a melting point of 177 to 179 °C.
The compound `COc1ccc(-c2nc3cc(F)ccc3s2)cc1OC(C)=O` yielded a melting point of 190 °C.
Compound `CC1(C)Oc2ccc3nc(Cl)ccc3c2C(NCCc2ccccc2)C1O` (stereo unspecified) showed a melting point of 141 to 143 °C.
For the compound `CCc1nn(C2CN(C(C)C)C2)c(C(N)=O)c1N`, the melting point lay in the range of 150 to 156 °C.
Regarding `CC=CCSc1cc(C(=O)O)cc(S(N)(=O)=O)c1-c1ccccc1`, the melting point is 89 to 91 °C.
`CC(=O)S[C@H]1CNC(=S)C1` registered a melting point of 91 to 93 °C.
In the case of `COc1ccc(COc2cnc3c(S)cccn3c2=O)cc1` it was over 230 °C; in that of `CC(=O)Nc1cc(Oc2ccc3c(C(=O)Nc4ccc(CN5CCN(C)CC5)cc4)cccc3c2)ncn1`, 238 to 242 °C; in that of `C=CCC(C#N)(C#N)Cc1ccc(OCC)cc1`, 84.3 °C.
`CCCc1nc(SC(F)F)c(C(=O)O)n1Cc1ccc(-c2ccccc2S(=O)(=O)NC(=O)NCc2cccs2)cc1` registered a melting point of 142 °C.
Compound `CN(O)C(=O)NCCc1cc2ccccc2o1` returned a melting point of 120 °C.
In the case of `COC(=O)c1c(Sc2ccc(Cl)cc2)c2cc(C)ccc2n1C` it was 110 to 111 °C; in that of `O=C(Nc1ccc(Oc2ccc(C(=O)N3CCC(C(=O)N4CCN(Cc5ccc6c(c5)OCO6)CC4)CC3)cc2)nc1)c1ccc(Cl)c(Cl)c1`, 236 to 238 °C; in that of `O=C(O)c1ccc(Nc2c(C(=O)O)cc(Cl)cc2[N+](=O)[O-])cc1`, 264 to 266 °C.
In turn, `CC(C)(C)c1ccc(S(=O)(=O)C[N+](=O)[O-])cc1` yielded a melting point of 90 to 91 °C.
Take `CCCCc1nnc(-c2ccc(N)cc2)o1`: the melting point came out at 125 °C.
The value for `COC(=O)NC[C@H]1CN(c2cc(F)c(N3CCC(n4ncnn4)CC3)c(F)c2)C(=O)O1` was 168 to 170 °C.
In the case of `COC(=O)NC1CCC(Nc2ncc3ncnc(Nc4ccc(F)c(Cl)c4)c3n2)CC1` (stereo unspecified) it was 230 to 235 °C.
`CCOC(=O)c1cn(-c2cc(NC(=O)OCc3ccccc3)c(F)cc2F)c2cc(F)c(F)c(C)c2c1=O` gave a melting point of 202 to 204 °C.
The value for `CCCCc1nc(C(C)(C)O)c(C(N)=O)n1Cc1ccc(-c2ccccc2C(=O)O)cc1` was 130 to 138 °C; that for `O=C1c2ccccc2C(=O)N1CCCCCCCCOc1cccc2ccccc12` was 63 to 64 °C.
`N#CC(=CC(=O)c1ccccc1)C(=O)O` came in with a melting point of 74 to 75 °C.
In the case of `CC1(C)OC(=O)Nc2ccc(-c3ccc(C#N)o3)cc21` it was 257 to 260 °C; in that of `CC(C)(C)OC(=O)c1ncn2c1[C@@H]1CCCN1C(=O)c1ccccc1-2`, 237 to 238 °C.
`O=C1c2ccccc2C(=O)N1CCCCOc1ccccn1`: the melting point was 77 to 78 °C.
Turning to `O=C(NCCO)c1cccc(-c2ccc3c(c2)C(Oc2ccc(Cl)cc2Cl)CCC3)c1` (stereo unspecified), the melting point lay within 171 to 172 °C.
In the case of `[N-]=[N+]=NC1CCc2ccccc2C1NC(=O)OCc1ccccc1` (stereo unspecified) it was 104 °C.
The value for `CCCn1nc2c(N)nc3ccccc3c2c1CC(C)(C)NC(=O)CC` was 158 to 159 °C; that for `CCOC(=O)c1ccn(-c2ccc(OC(F)(F)F)cc2)n1` was 76 to 78 °C; that for `Cc1cc(O)ccc1-c1nc2cc(O)cc(Br)c2o1` was 120 to 135 °C.
As for `CCOC(=O)c1ccc(C=C(C)C)c(OC)c1`, the melting point was 42 °C.
Turning to `Cc1nc(-c2cc3c4ccccc4n(CCCCl)c3cn2)no1`, the melting point was 130 to 135 °C.
Compound `CC(C)(O)c1cnn2c(-c3ccc(F)c(-c4ccc(F)cn4)c3)cnc2n1` yielded a melting point of 222 °C.
The value for `CN1C(=O)C(=O)C(c2ccc(Cl)cc2)Sc2ccccc21` (stereo unspecified) was 124 to 126 °C; that for `O=C(O)Cn1c(=O)n(Cc2ccc(Cl)c(Cl)c2)c(=O)c2ccccc21` was 225 to 227 °C; that for `CC1CCCC(C)(C)C1C(O)c1ccc(C(N)=NO)c(F)c1` (stereo unspecified) was 154 to 156 °C.
Turning to `COc1ccccc1SCCCCCC(=O)O`, the melting point is 81 to 82 °C.
`CC(=O)Nc1cc(Oc2ccc3c(C(=O)Nc4ccc(CN5CCN(C(C)C)CC5)c(C(F)(F)F)c4)cccc3c2)ncn1` yielded a melting point of 210 to 213 °C.
The value for `Cc1ccc(-c2nnc(N3CCC(C(N)=O)CC3)nc2-c2ccc(C)cc2)cc1` was 222 to 224 °C; that for `CCOC(=O)c1cn(-c2ccccc2)nc1OCc1oc2cc(OCc3nc(-c4ccccc4)oc3C)ccc2c1-c1ccccc1` was 143 to 144 °C; that for `CN1CCC2(CC1)NC(=O)N(c1ccc(C#N)c(C(F)(F)F)c1)C2=N` was 199 to 200 °C.
The value for `COC(=O)C(O)c1ccc2c(c1)OCO2` (stereo unspecified) was 93 to 95 °C.
For the compound `COC(=O)C1=C(CF)NC(C)=C(C(=O)OC(C)C)C1c1ccccc1C(F)(F)F` (stereo unspecified), the melting point fell in the range of 71 to 72 °C.
The compound `Clc1ccc2[nH]cc(C3CCNCC3)c2c1` showed a melting point of 156 to 158 °C.
`CN(C)C=Nc1nc2c(nnn2C2CC(O)C(CO)O2)c(=O)[nH]1` (stereo unspecified) showed a melting point of 236 °C.
In the case of `O=C(NCCCC(F)(F)F)C(c1ccccc1)c1ccccc1` it was 166 °C; in that of `O=c1[nH]c2cc(C(F)(F)F)ccc2n(CCn2ncnn2)c1=O`, 280 °C; in that of `O=C(O)CCCCCc1cccc2cncn12`, 144 to 147 °C.
As for `CCOC(=O)c1cnc(-c2ccccc2OC(C)CC)[nH]c1=O` (stereo unspecified), the melting point fell in the range of 134 to 136 °C.
As for `CCc1nc(/C=C/c2cn(-c3ccccc3)nc2OCc2ccc(OCc3nc(-c4cccc(-c5noc(=O)[nH]5)c4)oc3C)c(OC)c2)cs1`, the melting point lay in the range of 139 to 140 °C.
In the case of `Nc1nc2c(ncn2OCCCP(=O)(O)O)c(=O)[nH]1` it was over 300 °C.
The compound `CCC(C)(C)OC(=O)NC(C)(Cc1c[nH]c2ccccc12)C(=O)NC(Cc1cccs1)C(N)=O` (stereo unspecified) displayed a melting point of 187 to 192 °C.
In the case of `COc1cc(CCNC(=O)[C@@H](NC(=O)OC(C)(C)C)C(C)C)ccc1OC/C=C\c1ccc(Cl)cc1` it was 82 to 84 °C.
On to `CCOC(=O)C(NC(=O)OC(C)(C)C)c1csc(NC(=O)CCl)n1` (stereo unspecified), for which the melting point lay within 192 to 193 °C.
Take `c1ccc(-c2n[nH]cc2-c2ccnc(-c3ccc(OCCn4ccnc4)cc3)c2)nc1`: the melting point worked out at 108 °C.
As to `C/C(=C(\C#N)C(=S)/N=C/N(C)C)N1CCCN(c2ccc(C(F)(F)F)cc2)CC1`, the melting point lay within 251 to 253 °C.
On to `CC(C)c1c(O)ccc2c1oc1ccc(C#N)cc12`, for which the melting point is 180 to 182 °C.
`COc1ccc(C(=O)Nc2cccnc2)c2c1oc1ccc(NC(C)=O)cc12` returned a melting point of over 250 °C.
As for `CCOC(=O)C(C=O)Cc1ccc(C)nc1` (stereo unspecified), the melting point lay within 142 to 144 °C.
Consider `COc1ccc2cc(-c3ccnc(NCCc4ccc(OC)c(OC)c4)n3)cc(N3CCNCC3)c2c1`, for which the melting point was in the range of 138 to 140 °C.
In the case of `O=S(=O)(NCCCCCCCCCCCCBr)c1ccc(Cl)cc1` it was 70 to 73 °C; in that of `Clc1ccc2nc(Cl)cnc2c1`, 152 °C.
Take `O=C(O)Cc1csc(N=C2SC[C@@H]3Cc4ccccc4CN23)n1`: the melting point came out at 185 °C.
In the case of `CC(C)(C)OC(=O)N1CCC=C(c2ccnc(C(=O)N(O)Cc3ccccc3)c2)C1` it was 128 to 134 °C; in that of `CCCCCCCCCCCCCCCCc1cc2c(s1)-n1c(C)nnc1CN=C2c1ccccc1Cl`, 58 to 60 °C; in that of `COc1ccc(NC(=O)N(Cc2ccccc2)C2CCCCCC2)c(NC(=O)c2cc(C(C)(C)C)c(O)c(C(C)(C)C)c2)c1`, 125 to 130 °C.
`COc1cc2cc(CC(C)C)sc2c(Cl)c1Cl` returned a melting point of 40 to 41 °C.
In the case of `CN1CCC(=C2c3cc(Cl)ccc3CCn3ncnc32)CC1` it was 176 °C; in that of `CS(=O)c1ccc(-c2coc3ccc(-c4nnc(N)o4)cc23)cc1` (stereo unspecified), 284 to 285 °C.
On to `O=C(c1ccc(F)cc1)c1ccc(C(c2ccc(C(=O)c3ccc(F)cc3)cc2)(C(F)(F)F)C(F)(F)F)cc1`, for which the melting point was in the range of 142 to 143 °C.
In turn, `O=C1N(N2CCCCC2)c2ccccc2C1(Cc1ccncc1)Cc1ccncc1` showed a melting point of 140 to 143 °C.
The value for `Cc1[nH]c(C(=O)NCCC(=O)O)c(C)c1-c1nc2ccc(C(=O)c3ccccc3)cc2[nH]1` was 256 to 258 °C; that for `CCCn1cc(C(=O)NCc2ccc(Cl)cc2)c(=O)c2cc(CN(C)C[C@@H](O)c3ccccc3)sc21` was 45 to 48 °C.
In the case of `CC1(C)c2ccccc2N2Cc3cc(N=Nc4ccc([N+](=O)[O-])cc4)ccc3OC21C` (stereo unspecified) it was 156 °C; in that of `Cc1c(-c2cccnc2)n(Cc2ccc(C(=O)O)cc2)c2ccccc12`, 273 to 275 °C.
As for `CCC1(c2ccccc2)OC(C(=O)O)Oc2ccc(Cl)cc21` (stereo unspecified), the melting point came to 85 °C.
For `O=C1NC(=O)C(c2c[nH]c3ccc(Br)cc23)C1c1cc2c3c(ccn3CCC2)c1` (stereo unspecified), the melting point was in the range of 195 to 200 °C.
`C[C@H]1C=CC(S(=O)(=O)c2ccccc2)=C[C@H](C)[C@H]1O[Si](C)(C)C(C)(C)C` showed a melting point of 81.6 to 83.6 °C.
On to `Fc1ccc(CNc2nc(OCc3ccccc3)nc(OCc3ccccc3)n2)cc1`, for which the melting point was in the range of 157 to 159 °C.
The value for `COC(=O)c1c(NC(C)C)cccc1S(=O)(=O)NC(C)(C)C` was 110 to 112 °C.

The record behind these values is a melting point compilation (Tetko et al.; mined from patent text by program, amines drawn as free bases though some values may be those of a salt).
